Data on two molecules can be found in publication PMC10415494, “Ga(III) pyridinecarboxylate complexes: potential analogues of the second generation of therapeutic Ga(III) complexes?” (Journal of Biological Inorganic Chemistry, 2023).

Like-named read-outs stand apart in the source and are kept apart here.

The test system of data set [1] is Escherichia coli (E. coli) CCM 3988. The data set can be described thus: Antimicrobial activity, macrodilution method (growth by A590). Type of data set: cell-based. As to conditions: Escherichia coli.
The subject of data set [2] is Pseudomonas aeruginosa (P. aeruginosa) CCM 1959. The description is as above. It counts as cell-based. Particulars: Pseudomonas aeruginosa.
Data set [3] relates to Staphylococcus aureus (S. aureus) CCM 3953. Described as above. It counts as cell-based. As to conditions: Staphylococcus aureus.
The subject of data set [4] is Alternaria alternata (A. alternata) CCM F-128. The data set can be described thus: Growth of filamentous fungi, macrodilution method on solidified PDA (colony diameter). Type of data set: cell-based. Particulars: Alternaria alternata, read-out: IC50 A. alternata.
The test system of data set [5] is Microsporum gypseum (M. gypseum) CCM F-8342. Described as above. It counts as cell-based. Particulars: Nannizzia gypsea, read-out: IC50 M. gypseum.
Data set [6] relates to Rhizopus oryzae (R. oryzae) CCM F-8284. The description is as above. Particulars: Rhizopus arrhizus, read-out: IC50 R. oryzae. Type of data set: cell-based.
Data set [7] deals with A2058 (human metastatic melanoma). As to the kind of experiment: MTS antiproliferative assay. As to conditions: Homo sapiens, A2058, 72 h, read-out: Cytotoxic activity IC50 A2058. (In general: Tetrazolium assays rely on reduction of a dye to a coloured formazan, in cell work by metabolically active cells.)
For data set [8], the system named is HCT116 (human colorectal carcinoma). The data set can be described thus: MTS antiproliferative assay. Particulars: Homo sapiens, HCT-116, 72 h, read-out: Cytotoxic activity IC50 HCT116.
For data set [9], the system named is HeLa (human cervical adenocarcinoma). The data set can be described thus: MTS antiproliferative assay. Particulars: Homo sapiens, HeLa, 72 h, read-out: Cytotoxic activity IC50 HeLa.
The test system of data set [10] is Jurkat (human leukaemic T cell lymphoma). The data set can be described thus: MTS antiproliferative assay. As to conditions: Homo sapiens, Jurkat, 72 h, read-out: Cytotoxic activity IC50 Jurkat.
For data set [11], the system named is MDA-MB-231 (human mammary gland adenocarcinoma). As to the kind of experiment: MTS antiproliferative assay. As to conditions: Homo sapiens, MDA-MB-231, 72 h, read-out: Cytotoxic activity IC50 MDA-MB-231.
The test system of data set [12] is PaTu 8902 (human pancreatic adenocarcinoma). The data set can be described thus: MTS antiproliferative assay. As to conditions: Homo sapiens, PaTu 8902, 72 h, read-out: Cytotoxic activity IC50 PaTu 8902.
Data set [13] is described as follows: MTS antiproliferative assay (non-cancer cells). Particulars: human.
Data set [14] has as its target T1, bovine serum albumin (BSA) (Bos taurus, UniProt P02769).
T1 construct: purchased Sigma-Aldrich Chemicals
As to the kind of experiment: BSA fluorescence quenching (Stern-Volmer). Type of data set: binding. Particulars: 0.01 M PBS buffer pH 7.4, 25 °C, λex = 280 nm. As for the experimental part: Fluorescence measurements were carried out on a Varian Cary Eclipse spectrofluorometer. The quenching studies of BSA with the Ga(III) complexes were investigated to determine whether they were able to quench fluorescence of BSA. All measurements were performed at 25 °C in 0.01 M PBS buffer (pH 7.4). The fluorescence spectra were measured at an excitation wavelength of 280 nm, with a slit width of 10 nm for the excitation and emission beams, in the range of 300–450 nm and analysed according to the classical Stern–Volmer Equation: F0/F=1+KSVQ where F0 and F are the fluorescence intensities in the absence and the presence of the quencher, respectively, KSV is the Stern–Volmer constant, and [Q] is the concentration of quencher.

Where [15] appears, read: Filamentous fungi, solidified potato-dextrose growth medium.

T1 sequence (P02769 25-607): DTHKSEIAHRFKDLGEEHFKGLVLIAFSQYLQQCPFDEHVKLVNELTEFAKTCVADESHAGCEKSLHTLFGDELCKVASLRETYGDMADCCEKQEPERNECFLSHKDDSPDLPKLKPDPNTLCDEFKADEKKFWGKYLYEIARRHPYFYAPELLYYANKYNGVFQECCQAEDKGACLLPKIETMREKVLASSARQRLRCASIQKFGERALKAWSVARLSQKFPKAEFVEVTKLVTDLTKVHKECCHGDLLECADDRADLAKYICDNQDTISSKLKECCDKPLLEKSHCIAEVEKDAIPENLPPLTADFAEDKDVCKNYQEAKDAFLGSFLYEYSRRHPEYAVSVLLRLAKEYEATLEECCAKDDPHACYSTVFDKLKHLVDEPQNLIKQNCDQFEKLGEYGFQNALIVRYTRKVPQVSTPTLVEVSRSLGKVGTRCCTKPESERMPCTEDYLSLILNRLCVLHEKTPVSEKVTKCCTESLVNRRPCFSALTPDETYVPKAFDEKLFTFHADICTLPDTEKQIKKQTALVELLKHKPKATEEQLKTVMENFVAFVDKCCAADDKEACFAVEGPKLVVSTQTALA

Broadly, the IC50 is the midpoint of a concentration-inhibition curve. For the molecule `O=C(O)c1cccc(C(=O)O)n1` [H2Dpic, dipicolinic acid], the 50% inhibitory concentration (IC50) in data set [1] (CCM3988, read-out: IC50 E. coli) is over 1000 µM; in data set [2] (CCM1959, read-out: IC50 P. aeruginosa) it was over 1000 µM; in data set [3] (CCM3953, read-out: IC50 S. aureus) it was over 1000 µM; in data set [4] it was over 1000 µM; in [5], over 1000 µM; in data set [6], 500 µM. Moreover, the IC50 in data set [7], in data set [8], in [9], in data set [10], in data set [11] and in [12] was over 200 µM each time. The molecule further returned an IC50 at 72 h in data set [13] of over 200 µM. Also, in data set [14], the “Stern–Volmer binding constant Ksv BSA” value worked out at 28700 M⁻¹.

Regarding `O=C(O)c1ccccn1` [HPic, picolinic acid], the IC50 is over 500 µM in data set [1] (CCM3988, Bacteria, MHB, 37 °C, DMSO max 1.0 vol. %, read-out: IC50 E. coli); over 500 µM in data set [2] (CCM1959, Bacteria, MHB, 37 °C, DMSO max 1.0 vol. %, read-out: IC50 P. aeruginosa); over 500 µM in [3] (CCM3953, Bacteria, MHB, 37 °C, DMSO max 1.0 vol. %, read-out: IC50 S. aureus); over 500 µM in data set [4] (setting [15]); over 500 µM in [5] (setting [15]); over 500 µM in [6] (solidified potato-dextrose growth medium). Also, the IC50 in [7], in data set [8], in [9], in data set [10], in data set [11] and in [12] was over 200 µM throughout. Besides, the 50% inhibitory concentration (IC50) at 72 h in data set [13] (human dermal fibroblasts (HDF)) is over 200 µM. The “Stern–Volmer binding constant Ksv BSA” value in data set [14] came out at 6800 M⁻¹.
